Source: patent publication US20210139528A1, “CRYSTALLINE FORMS OF OBETICHOLIC ACID” (INTERCEPT PHARMACEUTICALS, INC., priority 2017, published 2021)
Where a name gives a salt, the structure may show the parent alone.

Key:
[1] = Gravimetric Vapor Sorption (GVS); type: physicochemical; conditions: for GVS water uptake: 0-90% RH range, about 25° C.; for XRPD post GVS (form recovered after the experiment): after GVS cycle 0-90% RH
Experimental: Sorption isotherms were obtained using a SMS DVS Intrinsic moisture sorption analyzer, controlled by DVS Intrinsic Control software v1.0.1.2 (or v 1.0.1.3). The sample temperature was maintained at about 25° C. by the instrument controls. The humidity was controlled by mixing streams of dry and wet nitrogen, with a total flow rate of about 200 mL/min. The relative humidity was measured by a calibrated Rotronic probe (dynamic range of about 1.0-100% RH), located near the sample. The weight change, (mass relaxation) of the sample as a function of % RH was constantly monitored by the microbalance (accuracy ±0.005 mg). Typically, about 18-20 mg of sample was placed in a tared mesh stainless steel basket under ambient conditions. The sample was loaded and unloaded at about 40% RH and about 25° C. (typical room conditions). A moisture sorption isotherm was performed as outlined in Table 1 (2 scans giving 1 complete cycle). The standard isotherm was performed at about 25° C. at about 10% RH intervals over a 0-90% RH range. Data analysis was carried out using Microsoft Excel using DVS Analysis Suite v6.2 (or 6.1 or 6.0). The sample was recovered after completion of the isotherm and re-analysed by XRPD.

[2] = Storage at elevated temperature/humidity, solid form checked by XRPD

| Molecule | GVS water uptake [1] | GVS water uptake ([1]; listed as cocrystal) [% water uptake] | XRPD post GVS (form recovered after the experiment) [1] | XRPD post GVS (form recovered after the experiment) ([1]; listed as cocrystal) | Stability on storage at 25° C./97% RH (XRPD) ([2]; 25° C./97% RH, 7 days) | Stability on storage at 40° C./75% RH (XRPD) ([2]; 40° C./75% RH, 7 days) | Stability on storage at 40° C./75% RH (XRPD), screening sample ([2]; screening sample, 40° C./75% RH, 23 days) |
| --- | --- | --- | --- | --- | --- | --- | --- |
| Obeticholic acid-ursodeoxycholic acid (2:1) cocrystal [OCA:UDCA cocrystal] | ca. 1 % w/w | 1 | no change | Unchanged by XRPD | – | – | – |
| CC[C@H]1[C@@H](O)[C@@H]2[C@H](CC[C@]3(C)[C@@H]([C@H](C)CCC(=O)O)CC[C@@H]23)[C@@]2(C)CC[C@@H](O)C[C@@H]12 [obeticholic acid monoammonium salt] | – | – | – | – | amorphous | unchanged | possible form change |
